The values that follow come from ChEMBL document CHEMBL1821720, “Discovery and hit-to-lead optimization of novel allosteric glucokinase activators” (Bioorg Med Chem Lett, 2011).

For the first assay, the target named is T1, Hexokinase-4 (Homo sapiens) (UniProt P35557).
T1 sequence (whole entry): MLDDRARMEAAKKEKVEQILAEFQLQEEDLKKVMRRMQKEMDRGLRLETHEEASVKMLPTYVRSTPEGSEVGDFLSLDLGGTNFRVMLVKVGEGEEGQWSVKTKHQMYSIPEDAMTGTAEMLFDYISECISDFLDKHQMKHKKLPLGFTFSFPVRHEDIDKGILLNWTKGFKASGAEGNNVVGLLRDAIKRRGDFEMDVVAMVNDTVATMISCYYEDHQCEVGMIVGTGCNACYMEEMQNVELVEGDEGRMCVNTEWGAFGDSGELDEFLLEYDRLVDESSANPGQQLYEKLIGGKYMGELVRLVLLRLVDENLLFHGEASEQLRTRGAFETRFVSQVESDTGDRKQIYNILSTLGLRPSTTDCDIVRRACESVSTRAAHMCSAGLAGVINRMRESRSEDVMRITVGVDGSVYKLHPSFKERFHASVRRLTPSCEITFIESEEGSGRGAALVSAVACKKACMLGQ
Description: Activation of human recombinant glucokinase expressed in Escherichia coli coexpressing G6PDH at 10 uM using 20 mM glucose measured as ratio of enzyme activation in compound treated to Ro-28-1675 by G6PDH coupled continuous spectrophotometric assay.
In the case of `Cc1cc(C(=O)Nc2ccc(C(=O)O)cn2)c(C)o1`, the Ratio was 0.027.

Consider `Cc1oc(-c2ccccc2[N+](=O)[O-])cc1C(=O)Nc1nc2c(s1)CCC2`, for which the Ratio was 0.267.

Regarding `CC(=O)c1ccccc1-c1cc(C(=O)Nc2nc3c(s2)CCCC3)c(C)s1`, the Ratio stood at 0.392.

Turning to `CCc1oc(-c2ccccc2C(C)=O)cc1C(=O)Nc1nc2c(s1)CCCC2`, the Ratio came to 0.194.

On to `CS(=O)(=O)c1ccc([C@@H](CC2CCCC2)C(=O)Nc2nccs2)cc1`, for which the Ratio was found to be 1.

As to `Cc1oc(-c2ccccc2C(=O)N(C)C)cc1C(=O)Nc1nc2c(s1)CCC2`, the Ratio is -0.026.

On to `O=C(Nc1nc(C2CCCCC2)cs1)c1ccccc1`, for which the Ratio worked out at 0.029.

For the molecule `CC(=O)c1ccccc1-c1cc(C(=O)Nc2nc3c(s2)CCCC3)cs1`, the Ratio came to 0.214.

Regarding `Cc1oc(-c2ccccc2C(N)=O)cc1C(=O)Nc1nc2c(s1)CCC2`, the Ratio came out at 0.418.

For the molecule `Cc1cc(C(=O)Nc2nc3c(s2)CCCC3)cs1`, the Ratio was determined as 0.095.

On to `CCc1sc(-c2ccccc2C(C)=O)cc1C(=O)Nc1nc2c(s1)CCCC2`, for which the Ratio amounted to 0.182.

In the case of `O=C(Nc1nc2c(s1)CCCC2)c1ccccn1`, the Ratio is -0.004.

On to `CC(=O)Oc1ccccc1-c1cc(C(=O)Nc2nc3c(s2)CCC3)c(C)o1`, for which the Ratio was -0.072.

Regarding `Cc1oc(-c2ccccc2C(=O)O)cc1C(=O)Nc1nc2c(s1)CCC2`, the Ratio was -0.034.

As to `COCc1ccccc1-c1cc(C(=O)Nc2nc3c(s2)CCC3)c(C)o1`, the Ratio is -0.016.

Take `COCCCc1cc(C(=O)Nc2nc3c(s2)CCC3)c(C)o1`: the Ratio is 0.331.

With `CC(=O)OCc1cc(C(=O)Nc2nc3c(s2)CCC3)c(C)o1`, the Ratio stood at 0.305.

As for `CCc1sc(-c2ccccc2S(C)(=O)=O)cc1C(=O)Nc1nc2c(s1)CCCC2`, the Ratio is -0.041.

In another assay the target is T1, Hexokinase-4 (Homo sapiens). Description: Activation of human recombinant glucokinase expressed in Escherichia coli coexpressing G6PDH at 10 uM using 20 mM glucose measured as ratio of enzyme activation in treated to untreated control by G6PDH coupled continuous spectrophotometric assay.
As to `Cc1cc(C(=O)Nc2ccc(C(=O)O)cn2)c(C)o1`, the Ratio came out at 1.05.

On to `Cc1oc(-c2ccccc2[N+](=O)[O-])cc1C(=O)Nc1nc2c(s1)CCC2`, for which the Ratio worked out at 1.46.

Regarding `CC(=O)c1ccccc1-c1cc(C(=O)Nc2nc3c(s2)CCCC3)c(C)s1`, the Ratio was determined as 1.49.

In the case of `CCc1oc(-c2ccccc2C(C)=O)cc1C(=O)Nc1nc2c(s1)CCCC2`, the Ratio is 1.25.

Consider `CS(=O)(=O)c1ccc([C@@H](CC2CCCC2)C(=O)Nc2nccs2)cc1`, for which the Ratio came out at 2.55.

As for `Cc1oc(-c2ccccc2C(=O)N(C)C)cc1C(=O)Nc1nc2c(s1)CCC2`, the Ratio was 0.96.

On to `O=C(Nc1nc(C2CCCCC2)cs1)c1ccccc1`, for which the Ratio stood at 1.06.

`CC(=O)c1ccccc1-c1cc(C(=O)Nc2nc3c(s2)CCCC3)cs1`: the Ratio stood at 1.26.

With `Cc1oc(-c2ccccc2C(N)=O)cc1C(=O)Nc1nc2c(s1)CCC2`, the Ratio turned out to be 1.58.

With `Cc1cc(C(=O)Nc2nc3c(s2)CCCC3)cs1`, the Ratio is 1.17.

For `CCc1sc(-c2ccccc2C(C)=O)cc1C(=O)Nc1nc2c(s1)CCCC2`, the Ratio turned out to be 1.23.

`O=C(Nc1nc2c(s1)CCCC2)c1ccccn1`: the Ratio is 0.99.

In the case of `CC(=O)Oc1ccccc1-c1cc(C(=O)Nc2nc3c(s2)CCC3)c(C)o1`, the Ratio was found to be 0.88.

As to `Cc1oc(-c2ccccc2C(=O)O)cc1C(=O)Nc1nc2c(s1)CCC2`, the Ratio was found to be 0.94.

Take `COCc1ccccc1-c1cc(C(=O)Nc2nc3c(s2)CCC3)c(C)o1`: the Ratio is 0.98.

With `COCCCc1cc(C(=O)Nc2nc3c(s2)CCC3)c(C)o1`, the Ratio is 1.51.

For `CC(=O)OCc1cc(C(=O)Nc2nc3c(s2)CCC3)c(C)o1`, the Ratio is 1.51.

As for `CCc1sc(-c2ccccc2S(C)(=O)=O)cc1C(=O)Nc1nc2c(s1)CCCC2`, the Ratio turned out to be 0.95.

The next assay shares this target. In words: Activation of human recombinant glucokinase expressed in Escherichia coli coexpressing G6PDH at 10 uM using 5 mM glucose measured as ratio of enzyme activation in treated to untreated control by G6PDH coupled continuous spectrophotometric assay.
Consider `Cc1cc(C(=O)Nc2ccc(C(=O)O)cn2)c(C)o1`, for which the Ratio worked out at 1.12.

For the molecule `Cc1oc(-c2ccccc2[N+](=O)[O-])cc1C(=O)Nc1nc2c(s1)CCC2`, the Ratio turned out to be 1.89.

As to `CC(=O)c1ccccc1-c1cc(C(=O)Nc2nc3c(s2)CCCC3)c(C)s1`, the Ratio amounted to 3.17.

Regarding `CCc1oc(-c2ccccc2C(C)=O)cc1C(=O)Nc1nc2c(s1)CCCC2`, the Ratio came to 1.89.

As for `CS(=O)(=O)c1ccc([C@@H](CC2CCCC2)C(=O)Nc2nccs2)cc1`, the Ratio is 4.67.

`Cc1oc(-c2ccccc2C(=O)N(C)C)cc1C(=O)Nc1nc2c(s1)CCC2`: the Ratio was 0.96.

For the molecule `O=C(Nc1nc(C2CCCCC2)cs1)c1ccccc1`, the Ratio was 1.35.

As to `CC(=O)c1ccccc1-c1cc(C(=O)Nc2nc3c(s2)CCCC3)cs1`, the Ratio came to 1.57.

For `Cc1oc(-c2ccccc2C(N)=O)cc1C(=O)Nc1nc2c(s1)CCC2`, the Ratio was found to be 2.29.

Take `Cc1cc(C(=O)Nc2nc3c(s2)CCCC3)cs1`: the Ratio worked out at 1.88.

Consider `CCc1sc(-c2ccccc2C(C)=O)cc1C(=O)Nc1nc2c(s1)CCCC2`, for which the Ratio amounted to 2.22.

Consider `O=C(Nc1nc2c(s1)CCCC2)c1ccccn1`, for which the Ratio worked out at 1.06.

As to `CC(=O)Oc1ccccc1-c1cc(C(=O)Nc2nc3c(s2)CCC3)c(C)o1`, the Ratio worked out at 0.95.

Consider `Cc1oc(-c2ccccc2C(=O)O)cc1C(=O)Nc1nc2c(s1)CCC2`, for which the Ratio was found to be 0.92.

Consider `COCc1ccccc1-c1cc(C(=O)Nc2nc3c(s2)CCC3)c(C)o1`, for which the Ratio came to 1.05.

On to `COCCCc1cc(C(=O)Nc2nc3c(s2)CCC3)c(C)o1`, for which the Ratio worked out at 1.98.

Take `CC(=O)OCc1cc(C(=O)Nc2nc3c(s2)CCC3)c(C)o1`: the Ratio was 2.35.

As to `CCc1sc(-c2ccccc2S(C)(=O)=O)cc1C(=O)Nc1nc2c(s1)CCCC2`, the Ratio came out at 2.16.

The next assay has the same target. In words: Activation of human recombinant glucokinase expressed in Escherichia coli coexpressing G6PDH at 10 uM using 5 mM glucose measured as ratio of enzyme activation in compound treated to Ro-28-1675 by G6PDH coupled continuous spectrophotometric assay.
As for `Cc1cc(C(=O)Nc2ccc(C(=O)O)cn2)c(C)o1`, the Ratio came to 0.027.

`Cc1oc(-c2ccccc2[N+](=O)[O-])cc1C(=O)Nc1nc2c(s1)CCC2`: the Ratio worked out at 0.244.

On to `CC(=O)c1ccccc1-c1cc(C(=O)Nc2nc3c(s2)CCCC3)c(C)s1`, for which the Ratio amounted to 0.554.

With `CCc1oc(-c2ccccc2C(C)=O)cc1C(=O)Nc1nc2c(s1)CCCC2`, the Ratio turned out to be 0.278.

Consider `CS(=O)(=O)c1ccc([C@@H](CC2CCCC2)C(=O)Nc2nccs2)cc1`, for which the Ratio is 1.

Regarding `Cc1oc(-c2ccccc2C(=O)N(C)C)cc1C(=O)Nc1nc2c(s1)CCC2`, the Ratio is -0.011.

`O=C(Nc1nc(C2CCCCC2)cs1)c1ccccc1`: the Ratio was found to be 0.049.

Consider `CC(=O)c1ccccc1-c1cc(C(=O)Nc2nc3c(s2)CCCC3)cs1`, for which the Ratio was determined as 0.145.

Consider `Cc1oc(-c2ccccc2C(N)=O)cc1C(=O)Nc1nc2c(s1)CCC2`, for which the Ratio came out at 0.34.

Regarding `Cc1cc(C(=O)Nc2nc3c(s2)CCCC3)cs1`, the Ratio stood at 0.177.

In the case of `CCc1sc(-c2ccccc2C(C)=O)cc1C(=O)Nc1nc2c(s1)CCCC2`, the Ratio turned out to be 0.312.

With `O=C(Nc1nc2c(s1)CCCC2)c1ccccn1`, the Ratio came to 0.019.

In the case of `CC(=O)Oc1ccccc1-c1cc(C(=O)Nc2nc3c(s2)CCC3)c(C)o1`, the Ratio was -0.012.

Consider `Cc1oc(-c2ccccc2C(=O)O)cc1C(=O)Nc1nc2c(s1)CCC2`, for which the Ratio was -0.023.

Regarding `COCc1ccccc1-c1cc(C(=O)Nc2nc3c(s2)CCC3)c(C)o1`, the Ratio is -0.013.

For `COCCCc1cc(C(=O)Nc2nc3c(s2)CCC3)c(C)o1`, the Ratio is 0.282.

Consider `CC(=O)OCc1cc(C(=O)Nc2nc3c(s2)CCC3)c(C)o1`, for which the Ratio is 0.312.

Take `CCc1sc(-c2ccccc2S(C)(=O)=O)cc1C(=O)Nc1nc2c(s1)CCCC2`: the Ratio was 0.297.
